Assay results published in patent publication EP0555116B1, “Compositions based on antiseptics and their applications” (HUTCHINSON, priority 1992, dated 1993).

Assays:
[1] = test system: Candida albicans ATCC 1031; assay: Growth inhibition test (DGHM, Essai 2, Tables A-C), 72 h at 37°C; non/A/B/C = without or with inactivating substances A, B, C; format: cell-based
Procedure: Un autre essai a été réalisé à partir des solutions suivantes : • 100 ml d'une solution à 0,1 % de digluconate de chlorhexidine (pH 6) et • 100 ml d'une solution à 0,1 % de Bardac 22®. […]
(§1) Les tests ont été réalisés conformément au protocole décrit dans le Chapitre I/2.1 et 2.2 de Richtlinien für die Prüfung und Bewertung chemischer Desinfektionsverfahren der DGHM, Stand 1.1., 1981).
(§2) Les Tableaux A, B et C illustrent respectivement l'activité bactéricide et fongicide d'une solution aqueuse à 0,1 % de digluconate de chlorhexidine, d'une solution aqueuse à 0,1 % de Bardac 22® et d'un mélange à part égale des deux composés. Les protocoles dont ces Tableaux illustrent les résultats comprennent une incubation de 72 heures à 37°C et l'utilisation, comme témoins, des substances inactivantes suivantes : A : Tween® 80 3 % + lécithine 0,3 % + cystéine 0,1 %; B : Tween® 80 3 % + saponine 3 % + cystéine 0,1 % + histidine 0,1 %; C : Tween® 80 3 % + lécithine 0,3 % + histidine 0,1 % + thiosulfate de sodium 0,5 %.
(§3) Dans ces Tableaux, le signe "+" indique une croissance et le signe "-" l'absence de croissance.

E. coli ATCC 11229 [2] = assay: as above; format: cell-based, Escherichia coli
Procedure: (§4) Un autre essai a été réalisé à partir des solutions suivantes : • 100 ml d'une solution à 0,1 % de digluconate de chlorhexidine (pH 6) et • 100 ml d'une solution à 0,1 % de Bardac 22®.
L'activité de ces solutions, seules ou en combinaison a été plus particulièrement testée vis-à-vis de Staphylococcus aureus ATCC 6538, Escherichia coli ATCC 11229 et Candida albicans ATCC 10231.
as §1, §2, §3

E. coli ATCC 11229 [3] = assay: Disinfection time test (Essai 2, Tables D-F), reaction at 22°, subcultures 72 h at 37°C; format: cell-based, Escherichia coli
Procedure: as §4, §1
Les tests dont les résultats sont illustrés aux Tableaux D, E et F ont été réalisés à une température de réaction de 22° avec une incubation des sous-cultures 72 heures à 37°C avec comme substances inactivantes : Tween® 80 3 % + saponine 3 % + cystéine 0,1 % + histidine 0,1 %; ces Tableaux illustrent respectivement l'activité bactéricide et fongicide d'une solution aqueuse à 0,1 % de digluconate de chlorhexidine, d'une solution aqueuse à 0,1 % de Bardac 22® et d'un mélange à part égale des deux composés et montrent l'action des antiseptiques précités, en fonction du temps de contact, et font apparaître la même synergie d'action de l'association que ci-dessus, dans la mesure où l'association des deux composés permet de diminuer significativement leur concentration, pour l'obtention d'un même effet. TABLEAU D

Structure (SMILES): [H]/N=C(\N/C(=N/[H])NCCCCCCNC(=N)NC(=N)Nc1ccc(Cl)cc1)Nc1ccc(Cl)cc1 [Chlorhexidine, digluconate de chlorhexidine, reference compound]
- croissance ([1]; Conc. 0,1 % (vol/vol), A): +
- croissance ([1]; Conc. 0,1 % (vol/vol), B): +
- croissance ([1]; Conc. 0,1 % (vol/vol), C): +
- croissance ([1]; Conc. 0,1 % (vol/vol), non): +
- croissance ([1]; Conc. 0,05 % (vol/vol), A): +
- croissance ([1]; Conc. 0,5 % (vol/vol), A): +
- croissance ([1]; Conc. 0,05 % (vol/vol), B): +
- croissance ([1]; Conc. 0,5 % (vol/vol), B): +
- croissance ([1]; Conc. 0,05 % (vol/vol), C): +
- croissance ([1]; Conc. 0,5 % (vol/vol), C): +
- croissance ([1]; Conc. 0,05 % (vol/vol), non): +
- croissance ([1]; Conc. 0,5 % (vol/vol), non): +
- croissance ([1]; Conc. 1,0 % (vol/vol), A): +
- croissance ([1]; Conc. 1,0 % (vol/vol), B): +
- croissance ([1]; Conc. 1,0 % (vol/vol), C): +
- croissance ([1]; Conc. 1,0 % (vol/vol), non): -
- croissance ([1]; Conc. 0,00625 % (vol/vol), A): +
- croissance ([1]; Conc. 0,00625 % (vol/vol), B): +
- croissance ([1]; Conc. 0,00625 % (vol/vol), C): +
- croissance ([1]; Conc. 0,00625 % (vol/vol), non): +
- croissance ([1]; Conc. 0,0125 % (vol/vol), A): +
- croissance ([1]; Conc. 0,0125 % (vol/vol), B): +
- croissance ([1]; Conc. 0,0125 % (vol/vol), C): +
- croissance ([1]; Conc. 0,0125 % (vol/vol), non): +
- croissance ([1]; Conc. 0,025 % (vol/vol), A): +
- croissance ([1]; Conc. 0,025 % (vol/vol), B): +
- croissance ([1]; Conc. 0,025 % (vol/vol), C): +
- croissance ([1]; Conc. 0,025 % (vol/vol), non): +
- concentration en substance active inhibant la croissance ([1]; antiseptique seul): 0,001%
- croissance (E. coli ATCC 11229 [2]; Conc. 0,1 % (vol/vol), A): +
- croissance (E. coli ATCC 11229 [2]; Conc. 0,1 % (vol/vol), B): +
- croissance (E. coli ATCC 11229 [2]; Conc. 0,1 % (vol/vol), C): +
- croissance (E. coli ATCC 11229 [2]; Conc. 0,1 % (vol/vol), non): +
- croissance (E. coli ATCC 11229 [2]; Conc. 0,05 % (vol/vol), A): +
- croissance (E. coli ATCC 11229 [2]; Conc. 0,5 % (vol/vol), A): +
- croissance (E. coli ATCC 11229 [2]; Conc. 0,05 % (vol/vol), B): +
- croissance (E. coli ATCC 11229 [2]; Conc. 0,5 % (vol/vol), B): +
- croissance (E. coli ATCC 11229 [2]; Conc. 0,05 % (vol/vol), C): +
- croissance (E. coli ATCC 11229 [2]; Conc. 0,5 % (vol/vol), C): +
- croissance (E. coli ATCC 11229 [2]; Conc. 0,05 % (vol/vol), non): +
- croissance (E. coli ATCC 11229 [2]; Conc. 0,5 % (vol/vol), non): -
- croissance (E. coli ATCC 11229 [2]; Conc. 1,0 % (vol/vol), A): +
- croissance (E. coli ATCC 11229 [2]; Conc. 1,0 % (vol/vol), B): +
- croissance (E. coli ATCC 11229 [2]; Conc. 1,0 % (vol/vol), C): +
- croissance (E. coli ATCC 11229 [2]; Conc. 1,0 % (vol/vol), non): -
- croissance (E. coli ATCC 11229 [2]; Conc. 0,00625 % (vol/vol), A): +
- croissance (E. coli ATCC 11229 [2]; Conc. 0,00625 % (vol/vol), B): +
- croissance (E. coli ATCC 11229 [2]; Conc. 0,00625 % (vol/vol), C): +
- croissance (E. coli ATCC 11229 [2]; Conc. 0,00625 % (vol/vol), non): +
- croissance (E. coli ATCC 11229 [2]; Conc. 0,0125 % (vol/vol), A): +
- croissance (E. coli ATCC 11229 [2]; Conc. 0,0125 % (vol/vol), B): +
- croissance (E. coli ATCC 11229 [2]; Conc. 0,0125 % (vol/vol), C): +
- croissance (E. coli ATCC 11229 [2]; Conc. 0,0125 % (vol/vol), non): +
- croissance (E. coli ATCC 11229 [2]; Conc. 0,025 % (vol/vol), A): +
- croissance (E. coli ATCC 11229 [2]; Conc. 0,025 % (vol/vol), B): +
- croissance (E. coli ATCC 11229 [2]; Conc. 0,025 % (vol/vol), C): +
- croissance (E. coli ATCC 11229 [2]; Conc. 0,025 % (vol/vol), non): +
- concentration en substance active inhibant la croissance (E. coli ATCC 11229 [2]; antiseptique seul): 0,0005%
- croissance (E. coli ATCC 11229 [3]; Conc. 0,1 % (vol/vol), 1 min): +
- croissance (E. coli ATCC 11229 [3]; Conc. 0,1 % (vol/vol), 3 min): +
- croissance (E. coli ATCC 11229 [3]; Conc. 0,1 % (vol/vol), 5 min): +
- croissance (E. coli ATCC 11229 [3]; Conc. 0,1 % (vol/vol), 15 min): +
- croissance (E. coli ATCC 11229 [3]; Conc. 0,1 % (vol/vol), 30 min): +
- croissance (E. coli ATCC 11229 [3]; Conc. 0,1 % (vol/vol), 60 min): +
- croissance (E. coli ATCC 11229 [3]; Conc. 0,05 % (vol/vol), 1 min): +
- croissance (E. coli ATCC 11229 [3]; Conc. 0,5 % (vol/vol), 1 min): +
- croissance (E. coli ATCC 11229 [3]; Conc. 0,05 % (vol/vol), 3 min): +
- croissance (E. coli ATCC 11229 [3]; Conc. 0,5 % (vol/vol), 3 min): +
- croissance (E. coli ATCC 11229 [3]; Conc. 0,05 % (vol/vol), 5 min): +
- croissance (E. coli ATCC 11229 [3]; Conc. 0,5 % (vol/vol), 5 min): +
- croissance (E. coli ATCC 11229 [3]; Conc. 0,05 % (vol/vol), 15 min): +
- croissance (E. coli ATCC 11229 [3]; Conc. 0,5 % (vol/vol), 15 min): +
- croissance (E. coli ATCC 11229 [3]; Conc. 0,05 % (vol/vol), 30 min): +
- croissance (E. coli ATCC 11229 [3]; Conc. 0,5 % (vol/vol), 30 min): +
- croissance (E. coli ATCC 11229 [3]; Conc. 0,05 % (vol/vol), 60 min): +
- croissance (E. coli ATCC 11229 [3]; Conc. 0,5 % (vol/vol), 60 min): +
- croissance (E. coli ATCC 11229 [3]; Conc. 1 % (vol/vol), 1 min): +
- croissance (E. coli ATCC 11229 [3]; Conc. 1 % (vol/vol), 3 min): +
- croissance (E. coli ATCC 11229 [3]; Conc. 1 % (vol/vol), 5 min): +
- croissance (E. coli ATCC 11229 [3]; Conc. 1 % (vol/vol), 15 min): +
- croissance (E. coli ATCC 11229 [3]; Conc. 1 % (vol/vol), 30 min): +
- croissance (E. coli ATCC 11229 [3]; Conc. 1 % (vol/vol), 60 min): +
- croissance (E. coli ATCC 11229 [3]; Conc. 5 % (vol/vol), 1 min): +
- croissance (E. coli ATCC 11229 [3]; Conc. 5 % (vol/vol), 3 min): +
- croissance (E. coli ATCC 11229 [3]; Conc. 5 % (vol/vol), 5 min): +
- croissance (E. coli ATCC 11229 [3]; Conc. 5 % (vol/vol), 15 min): +
- croissance (E. coli ATCC 11229 [3]; Conc. 5 % (vol/vol), 30 min): -
- croissance (E. coli ATCC 11229 [3]; Conc. 5 % (vol/vol), 60 min): -
- croissance (E. coli ATCC 11229 [3]; Conc. 10 % (vol/vol), 1 min): +
- croissance (E. coli ATCC 11229 [3]; Conc. 10 % (vol/vol), 3 min): +
- croissance (E. coli ATCC 11229 [3]; Conc. 10 % (vol/vol), 5 min): +
- croissance (E. coli ATCC 11229 [3]; Conc. 10 % (vol/vol), 15 min): -
- croissance (E. coli ATCC 11229 [3]; Conc. 10 % (vol/vol), 30 min): -
- croissance (E. coli ATCC 11229 [3]; Conc. 10 % (vol/vol), 60 min): -
- croissance (E. coli ATCC 11229 [3]; Conc. 25 % (vol/vol), 1 min): +
- croissance (E. coli ATCC 11229 [3]; Conc. 25 % (vol/vol), 3 min): +
- croissance (E. coli ATCC 11229 [3]; Conc. 25 % (vol/vol), 5 min): +
- croissance (E. coli ATCC 11229 [3]; Conc. 25 % (vol/vol), 15 min): -
- croissance (E. coli ATCC 11229 [3]; Conc. 25 % (vol/vol), 30 min): -
- croissance (E. coli ATCC 11229 [3]; Conc. 25 % (vol/vol), 60 min): -
